{"source": "patent US20050064044A1", "about": "“GSK-3beta inhibitors in the treatment of bone-related diseases” (priority 2003, published 2005)", "key": {"[1]": {"tested_on": "LRP5 knockout mice", "experiment": "Bone phenotype of LRP5 knockout mice, micro-CT tomodensitometric analysis of tibia", "format": "in vivo", "experimental": "In vivo model uses LRP5 knock-out animals that show osteopenia phenotype resulting from the absence of the Wnt canonical signalling pathway, said signalling pathway involving GSK-3β. Thanks to this model, the effect of GSK-3β inhibitors on bone mass can be observed.\nLRP5 knockout mouse model has been described as an osteopenic mouse model (Kato et al., 2002).\nLiCl solution was prepared in distillated water at 55 mg/ml. Compound was administered by micropump Alzet (ref: 1002, Charles Rivers, France) to 2-3 week-old LRP5 knockout (KO) mice for 2 weeks. Tibia were prepared for tomographic analysis (Tomodensitometer Scanco μCT20, Basserdorf, Switszerland). Micro-CT scans of the metaphyseal tibia were performed at an isotropic resolution of 9 μm, to obtain trabecular bone structural parameters. Using a two- and three-dimensional model and a semiautomatic contouring algorithm, three-dimensional bone volume, bone surface, and trabecular thickness were determined (FIG. 6).\nStatistical significance was determined by the ANOVA unpaired t'test.\nResults of tomodensitometric analysis of metaphyseal trabecular part of tibia from 5 week-old and 4 week-old LRP5-KO mice treated with vehicle or LiCl (200 mg/kg/d) during 15 days are given in FIGS. 4 and 5, respectively."}, "[2]": {"tested_on": "Wnt/β-catenin signalling (GSK-3β inhibition) in C3H10T1/2 cells", "experiment": "Wnt signalling luciferase reporter construct in C3H10T1/2 cells", "format": "cell-based", "settings": "C3H10T1/2 cells stimulated for 24 h; firefly normalized to Renilla luciferase; FIG. 1", "experimental": "Whether inhibition of GSK-3β in C3H10T1/2 cells leads to Wnt/β-catenin signalling activation was investigated.\nC3H10T1/2 cells were transiently transfected using Fugen6 (Boehringer) with a Wnt signalling luciferase reporter construct (van de Wetering et al., 1997). To assess transfection efficacy, 20 ng of pRL-TK (Promega) encoding a Renilla luciferase gene downstream of a minimal HSV-TK promoter was systematically added to the transfection mix. Cells were stimulated with LiCl or with NaCl for 24 h. Cells were lysated and luciferase assays were performed with the Dual Luciferase Assay Kit (Promega) according to the manufacturer's instructions. 10 μl of cell lysate was assayed first for firefly luciferase and then for Renilla luciferase activity. Firefly luciferase activity was normalized to Renilla luciferase activity."}, "[3]": {"tested_on": "C3H10T1/2 cells", "experiment": "Alkaline phosphatase (ALP) osteoblast differentiation marker in C3H10T1/2 cells", "format": "cell-based", "settings": "C3H10T1/2 cells stimulated for 48 h; ALP activity normalized for total protein; FIG. 2", "excerpt": "In vitro model used the pluripotent mesenchymal cell line C3H10T1/2 that is able to differentiate into osteoblasts when triggered with the right compound or protein. The ability of a compound to induce these C3H10T1/2 cells to differentiate into osteoblasts can be monitored by, for instance, measuring the expression of the osteoblast differentiation marker, alkaline phosphatase (ALP).\nWhether inhibition of GSK-3β by LiCl in C3H10T1/2 cells leads to the expression of ALP was investigated.\nC3H10T1/2 cells were stimulated with LiCl or with NaCl for 48 h. ALP activity was determined in cell lysates using Alkaline Phosphatase Opt kit (Roche Molecular Biochemicals). Cell lysates were analyzed for protein content using micro-BCA Assay kit (Pierce), and ALP activity was normalized for total protein concentration."}, "[4]": {"settings": "4 week-old LRP5-KO mice treated for 15 days, vs vehicle, FIG. 6B/6D"}, "[5]": {"settings": "4 week-old LRP5-KO mice, 200 mg/kg/d during 15 days, metaphyseal trabecular tibia, vs vehicle, FIG. 5"}, "[6]": {"settings": "5 week-old LRP5-KO mice, 200 mg/kg/d during 15 days, metaphyseal trabecular tibia, vs vehicle, FIG. 4"}}, "note": "Entries after “also recorded” stand apart in the source; their conditions may differ."}
{"smiles": "[Cl-].[Li+]", "note": "[LiCl, lithium]", "values": [{"measurement": "bone volume, 3-D reconstruction of trabecular part of tibia", "setting": "[1]; [4]", "value": "increase"}, {"measurement": "trabecular thickness, 3-D reconstruction of trabecular part of tibia", "setting": "[1]; [4]", "value": "increase"}, {"measurement": "BV/TV (bone volume)", "setting": "[1]; [5]", "value": "significantly increase"}, {"measurement": "Tb.N (trabecular number)", "setting": "[1]; [5]", "value": "significantly increase"}, {"measurement": "Tb.Th (trabecular thickness)", "setting": "[1]; [5]", "value": "significantly increase"}, {"measurement": "BV/TV (bone volume)", "setting": "[1]; [6]", "value": "significantly increase"}, {"measurement": "Tb.N (trabecular number)", "setting": "[1]; [6]", "value": "significantly increase"}, {"measurement": "bone phenotype (osteopenia) of LRP5 knockout mice", "setting": "[1]; LRP5-KO mice, FIGS. 4 and 5", "value": "partially reversed; also recorded: partly restored"}, {"measurement": "luciferase expression (Wnt-signalling luciferase reporter)", "setting": "[2]", "value": "able to activate luciferase expression"}, {"measurement": "expression of the ALP osteoblast differentiation marker", "setting": "[3]", "value": "able to stimulate the expression of the ALP osteoblast differentiation marker"}]}
